Measurements: US12180192B2, “Modulators of THR-β and methods of use thereof” (ALIGOS THERAPEUTICS, INC., priority 2019, dated 2024)

Key:
[1] = biological target: T1, human thyroid receptor beta ligand-binding domain (LBD) (Homo sapiens, UniProt P10828); experiment: TR-FRET thyroid receptor beta coactivator assay (THR biochemical assay, Assay 1); details: for EC50: THR-beta, TR-FRET coactivator assay, read-out: Activity category Assay 1 (EC50, THR-beta agonist); for Emax: Table 5, Assay 1, THRβ, read-out: Activity category Assay 1 THRβ (Emax)
T1 construct: purchased Invitrogen
T1 sequence (P10828 217-461 limits assumed): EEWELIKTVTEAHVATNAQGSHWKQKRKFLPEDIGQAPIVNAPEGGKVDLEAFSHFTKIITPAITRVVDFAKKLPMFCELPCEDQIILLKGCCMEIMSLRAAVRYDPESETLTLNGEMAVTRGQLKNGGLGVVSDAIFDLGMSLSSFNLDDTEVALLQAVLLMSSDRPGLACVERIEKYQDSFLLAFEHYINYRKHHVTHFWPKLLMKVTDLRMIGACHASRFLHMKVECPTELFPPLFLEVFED
Summary of the method: (§1)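 Agonist-driven coactivator recruitment measured by TR-FRET: terbium anti-GST antibody (2 nM) bound to GST-LBD of TRβ or TRα (1 nM final, stated for β), with fluorescein SRC2-2 peptide at 200 nM. Compounds at 1% DMSO. Read after 1 h, room temperature, protected from light.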

[2] = biological target: T2, human thyroid receptor alpha ligand-binding domain (LBD) (Homo sapiens, UniProt P10827); experiment: TR-FRET thyroid receptor alpha coactivator assay (THR biochemical assay, Assay 1); details: for EC50: Table 4, THR-alpha, read-out: Activity category Assay 1 (EC50, THR-alpha agonist activity); for Emax: Table 5, THRα, read-out: Activity category Assay 1 THRα (Emax)
T2 construct: purchased Invitrogen
Summary of the method: as §1

[3] = biological target: T3, THR beta (Homo sapiens, UniProt P10828); experiment: HEK293T THR beta/RXR luciferase reporter assay (Assay 2); format: cell-based; details: for Emax: HEK-293T, Table 5, Assay 2, THRβ, read-out: Activity category Assay 2 THRβ (Emax); for EC50: THR-beta, HEK293T reporter assay, read-out: Activity category Assay 2 (EC50, THR-beta agonist)
T3 construct: expressed in transfected cells; host or cells: HEK293T (ATCC CRL-3216)
T3 sequence (P10828 1-461): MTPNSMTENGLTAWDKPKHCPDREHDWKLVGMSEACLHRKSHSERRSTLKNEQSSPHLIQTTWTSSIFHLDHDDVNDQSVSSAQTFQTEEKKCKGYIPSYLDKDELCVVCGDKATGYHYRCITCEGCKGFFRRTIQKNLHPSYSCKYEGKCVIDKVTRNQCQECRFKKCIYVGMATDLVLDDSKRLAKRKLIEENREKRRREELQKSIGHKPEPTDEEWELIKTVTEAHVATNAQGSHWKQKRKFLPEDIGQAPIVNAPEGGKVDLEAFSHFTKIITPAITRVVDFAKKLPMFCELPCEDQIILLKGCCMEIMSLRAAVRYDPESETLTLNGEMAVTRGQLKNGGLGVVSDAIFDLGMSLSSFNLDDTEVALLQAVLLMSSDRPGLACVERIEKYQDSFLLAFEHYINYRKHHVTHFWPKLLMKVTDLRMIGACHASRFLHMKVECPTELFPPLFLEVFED
T3 sequence (P19793 1-462 partner): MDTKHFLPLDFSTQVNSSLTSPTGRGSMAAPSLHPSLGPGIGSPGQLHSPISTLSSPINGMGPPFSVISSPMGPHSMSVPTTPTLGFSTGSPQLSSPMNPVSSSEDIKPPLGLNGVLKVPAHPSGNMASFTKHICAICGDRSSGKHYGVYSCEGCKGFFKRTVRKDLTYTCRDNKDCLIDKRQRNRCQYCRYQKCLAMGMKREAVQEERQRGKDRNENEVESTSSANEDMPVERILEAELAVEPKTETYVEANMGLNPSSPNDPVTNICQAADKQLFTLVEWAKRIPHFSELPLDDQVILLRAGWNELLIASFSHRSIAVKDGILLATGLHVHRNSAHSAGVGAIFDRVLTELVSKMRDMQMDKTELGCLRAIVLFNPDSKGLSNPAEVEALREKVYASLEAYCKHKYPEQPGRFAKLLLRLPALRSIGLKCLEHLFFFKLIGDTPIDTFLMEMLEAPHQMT
Summary of the method: (§2)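 Compounds tested as ten-point five-fold dilution series for 18-24 h on transiently transfected HEK293T cells carrying TRE-driven luciferase plus RXR and either THR alpha or beta expression plasmids. Read-out by One-Glo luminescence, expressed as percent agonism relative to negative and positive controls.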

[4] = biological target: T4, THR alpha (Homo sapiens, UniProt P10827); experiment: HEK293T THR alpha/RXR luciferase reporter assay (Assay 2); format: cell-based; details: Assay 2; for Emax: HEK-293T, Table 5, THRα, read-out: Activity category Assay 2 THRα (Emax); for EC50: Table 4, THR-alpha, read-out: Activity category Assay 2 (EC50, THR-alpha agonist activity)
T4 construct: expressed in transfected cells; host or cells: HEK293T (ATCC CRL-3216)
T4 sequence (P10827 1-410 isoform P10827-2): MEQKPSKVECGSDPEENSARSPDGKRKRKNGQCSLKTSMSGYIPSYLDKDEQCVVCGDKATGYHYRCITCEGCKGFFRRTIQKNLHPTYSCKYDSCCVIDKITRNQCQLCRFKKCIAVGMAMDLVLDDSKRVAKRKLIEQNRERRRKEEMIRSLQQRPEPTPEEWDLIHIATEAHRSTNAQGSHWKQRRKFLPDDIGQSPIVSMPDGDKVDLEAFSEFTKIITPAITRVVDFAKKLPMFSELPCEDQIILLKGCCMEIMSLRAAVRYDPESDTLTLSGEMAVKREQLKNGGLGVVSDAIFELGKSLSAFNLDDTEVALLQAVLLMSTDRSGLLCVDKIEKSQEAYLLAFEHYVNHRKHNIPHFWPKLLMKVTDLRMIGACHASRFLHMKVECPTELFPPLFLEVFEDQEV
T4 sequence (P19793 1-462 partner): T3 sequence (P19793 1-462 partner)
Summary of the method: as §2

| EC50 [1] [nM] | Emax [1] [%] | EC50 [2] [nM] | Emax [2] [%] | Emax [3] [%] | EC50 [3] [nM] | Emax [4] [%] | EC50 [4] [nM] | SMILES |
| --- | --- | --- | --- | --- | --- | --- | --- | --- |
| 1000 to 25000 | < 50 | 1000 to 25000 | < 50 | < 50 | 1000 to 10000 | < 50 | > 10000 | CO[C@H]1C[C@H](c2cc(Oc3c(Cl)cc(-n4nc(N)c(=O)[nH]c4=O)cc3Cl)n[nH]c2=O)C1 [Compound 102] |
| 1000 to 25000 | < 50 | > 25000 | < 50 | < 50 | 1000 to 10000 | < 50 | > 10000 | CO[C@H]1C[C@@H](c2cc(Oc3c(Cl)cc(-n4nc(N)c(=O)[nH]c4=O)cc3Cl)n[nH]c2=O)C1 [Compound 103] |
| 250 to 1000 | < 50 | 1000 to 25000 | 50 to 75 | 50 to 75 | 1000 to 10000 | < 50 | > 10000 | N#CC1CCC1c1cc(Oc2c(Cl)cc(-n3nc(N)c(=O)[nH]c3=O)cc2Cl)n[nH]c1=O (stereo not shown) [Compound 104] |
| 250 to 1000 | < 50 | 1000 to 25000 | < 50 | 50 to 75 | 1000 to 10000 | < 50 | 1000 to 10000 | Nc1nn(-c2cc(Cl)c(Oc3cc(C4CC(F)(F)C4)c(=O)[nH]n3)c(Cl)c2)c(=O)[nH]c1=O [Compound 106] |
| < 50 | < 50 | 1000 to 25000 | < 50 | 50 to 75 | 50 to 250 | < 50 | 250 to 1000 | Nc1nn(-c2cc(Cl)c(Oc3cc(C4(c5ccccc5)CC4)c(=O)[nH]n3)c(Cl)c2)c(=O)[nH]c1=O [Compound 107] |
| 50 to 250 | < 50 | 250 to 1000 | < 50 | < 50 | 250 to 1000 | < 50 | > 10000 | Cc1ccc(-c2cc(=O)[nH]nc2Oc2c(Cl)cc(-n3nc(N)c(=O)[nH]c3=O)cc2Cl)cc1C [Compound 113] |
| 50 to 250 | < 50 | > 25000 | < 50 | < 50 | 50 to 250 | < 50 | > 10000 | Cc1cc(-c2cc(Oc3c(Cl)cc(-n4nc(N)c(=O)[nH]c4=O)cc3Cl)n[nH]c2=O)ccc1Cl [Compound 116] |
| < 50 | 50 to 75 | 50 to 250 | < 50 | 50 to 75 | < 50 | 50 to 75 | 50 to 250 | Nc1nn(-c2cc(Cl)c(Oc3cc(-c4cccc(OC(F)F)c4)c(=O)[nH]n3)c(Cl)c2)c(=O)[nH]c1=O [Compound 118] |
| > 25000 | < 50 | > 25000 | < 50 | < 50 | > 10000 | < 50 | > 10000 | Nc1nn(-c2cc(Cl)c(Oc3cc(-c4ccc5ncccc5c4)c(=O)[nH]n3)c(Cl)c2)c(=O)[nH]c1=O [Compound 128] |
| < 50 | < 50 | 250 to 1000 | < 50 | 50 to 75 | 250 to 1000 | < 50 | > 10000 | Nc1nn(-c2cc(Cl)c(Oc3n[nH]c(=O)cc3-c3cc4ccccc4cn3)c(Cl)c2)c(=O)[nH]c1=O [Compound 134] |
| 50 to 250 | < 50 | 50 to 250 | < 50 | 50 to 75 | < 50 | < 50 | 50 to 250 | Cc1cccc(-c2cc(Oc3c(Cl)cc(-n4ncc(=O)[nH]c4=O)cc3Cl)n[nH]c2=O)c1 [Compound 139] |
| < 50 | 50 to 75 | < 50 | > 75 | > 75 | < 50 | > 75 | < 50 | Nc1nn(-c2cc(Cl)c(Oc3ccc4c(c3)C3(CC3)C(=O)N4)c(Cl)c2)c(=O)[nH]c1=O [Compound 143] |
| 50 to 250 | < 50 | 250 to 1000 | < 50 | 50 to 75 | 250 to 1000 | 50 to 75 | 1000 to 10000 | Nc1nn(-c2cc(Cl)c(Oc3cc(C4(F)CCCC4)c(=O)[nH]n3)c(Cl)c2)c(=O)[nH]c1=O [Compound 144, 6-amino-2-(3,5-dichloro-4-[[5-(1-fluorocyclopentyl)-6-oxo-1H-pyridazin-3-yl]oxy]phenyl)-4H-1,2,4-triazine-3,5-dione] |
| < 50 | 50 to 75 | < 50 | < 50 | > 75 | < 50 | > 75 | < 50 | CC(C)/C=C1\C(=O)Nc2ccc(Oc3c(Cl)cc(-n4nc(N)c(=O)[nH]c4=O)cc3Cl)cc21 [Compound 147, 6-amino-2-[3,5-dichloro-4-[(3Z)-3-(2-methylpropylidene)-2-oxo-indolin-5-yl]oxy-phenyl]-1,2,4-triazine-3,5-dione] |
| < 50 | < 50 | < 50 | < 50 | > 75 | < 50 | > 75 | < 50 | Cc1cc(-n2nc(N)c(=O)[nH]c2=O)cc(C)c1Cc1ccc2[nH]c(=O)n(C(C)C)c2c1 [Compound 149, 6-amino-2-(4-((3-isopropyl-2-oxo-2,3-dihydro-1H-benzo[d]imidazol-5-yl)methyl)-3,5-dimethylphenyl)-1,2,4-triazine-3,5(2H,4H)-dione] |
| < 50 | < 50 | < 50 | < 50 | 50 to 75 | < 50 | 50 to 75 | < 50 | Cc1cc(-n2nc(N)c(=O)[nH]c2=O)cc(C)c1Cc1ccc2c(c1)C1(CCCC1)C(=O)N2 [Compound 150, 6-Amino-2-(3,5-dimethyl-4-((2′-oxospiro[cyclopentane-1,3′-indolin]-5′-yl)methyl)phenyl)-1,2,4-triazine-3,5(2H,4H)-dione] |
| < 50 | < 50 | < 50 | 50 to 75 | 50 to 75 | < 50 | 50 to 75 | < 50 | Cc1cc(-n2ncc(=O)[nH]c2=O)cc(C)c1Cc1ccc2c(c1)C1(CC1)C(=O)N2 [Compound 152, 2-(3,5-dimethyl-4-((2′-oxospiro[cyclopropane-1,3′-indolin]-5′-yl)methyl)phenyl)-1,2,4-triazine-3,5(2H,4H)-dione] |
